Results from publication PMC2807854, “Monoketone analogs of curcumin, a new class of Fanconi anemia pathway inhibitors” (Molecular Cancer, 2009).

Columns and labels:
[1] = system: xMRE11-P (MRE11 phosphorylation); assay: MRE11 phosphorylation in activated Xenopus extracts (immunoblot); assay type: biochemical, Xenopus laevis
Protocol: A series of monoketone analogs of curcumin [18] was evaluated in Xenopus egg extracts where DNA substrate-induced xFANCD2-Ub is used as a readout of FA pathway performance. Phosphorylation of MRE11 (MRE11-P), a member of the MRN DNA damage repair pathway was monitored to assess the cross-specificity of the compounds. For each compound, IC50 values were determined from serial dilution experiments and densitometry analysis of immunoblots.
IC50 values were determined using immunoblots of plasmid-activated extracts treated with a range of concentrations for each compound (0, 10, 25, 60, 150, 400, 1000, 3000 μM). A representative experiment is shown (out of 3 repeats). B) Structure of curcumin and monoketone analogs. […] Activated extracts were treated with 1 mM each compound and phosphorylation of RPA32 and H2AX monitored by immunoblot.
Preparation of Xenopus laevis low-speed extracts and the FA pathway assay were described previously.
(§1) Fitted curves were determined from experimental data using IgorPro. The concentration of compound that induces 50% inhibition of the measured endpoint (i.e. FANCD2 ubiquitylation, Mre11 phosphorylation and cell survival) was then plotted on the fitted curve.

FA core complex = FA core complex integrity (co-immunoprecipitation) and recruitment to DNA in Xenopus extracts; assay type: biochemical, Xenopus laevis
Protocol: In human cells, hFANCD2-Ub is reduced when FA core complex proteins are defective or absent.
Xenopus extracts were treated with 1mM EF24 and core complex integrity was monitored by co-immunoprecipitation of FANCM and FANCA with FANCG (lanes 3-4).
Normal IgG was used as negative control for IP (lanes 1-2). Input corresponds to 5% of IP volume. LE, long exposure; SE short exposure. Co-immunoprecipitation of 3 members of the core complex (FANCA, FANCM and FANCG) was similar in the presence or in […]
Materials and Methods. 40 µl of egg extract (2 mg total protein content) were incubated with plasmid DNA (150 ng/µl) and 1 mM EF24 (or DMSO) for 20 min at room temperature before addition of 1 ml lysis buffer (10 mM Tris pH 7.4, 150 mM NaCl, 1% NP40, 0.5% deoxycholate, 1mM EDTA, 0.5 mg/ml Pefabloc, 1mM DTT). 10µl of rabbit polyclonal antibody against xFANCG was added and samples were mixed by rotating overnight at 4°C. 100 µl of pre-swelled and washed (50% slurry in PBS) proteinA-sepharose beads (GE Healthcare) were added and rotated for 30 minutes at 4°C. Beads were pelleted by centrifugation, washed 3 times with lysis buffer and proteins were eluted by boiling in protein loading buffer. […]

hFANCD2-Ub in HeLa cells = assay: hFANCD2 ubiquitylation assay in hydroxyurea-treated HeLa cells (immunoblot, densitometry); assay type: cell-based, human
Protocol: We next determined whether EF24 could inhibit hFANCD2-Ub in human cells. Curcumin was tested in parallel to assess whether activity difference observed in extracts are mirrored in cells. HeLa cells were co-treated with increasing concentrations of compounds and hydroxyurea (HU), a standard method to stimulate hFANCD2-Ub (Fig. 4A, lanes 1-2, 7-8, [30]).
(§2) A) Hydroxyurea-induced FANCD2-Ub in HeLa cells is inhibited by EF24 at lower concentrations than curcumin. hFANCD2-Ub was monitored by immunoblot and densitometry analysis to determine IC50. B) Hydroxyurea-induced hFANCD2 foci formation is inhibited by EF24. hFANCD2 foci were detected by immunofluorescence and the percentage of cells with more than 5 foci was determined for each treatment. Histograms represent the average of 3 experiments. Error bars represent standard deviation.
(§3) hFANCD2 ubiquitylation assay and immunofluorescence assays in HeLa cells have been described elsewhere.
as §1

HeLa cells = assay: Cell cycle profile of HeLa cells by FACS (PI DNA content); assay type: cell-based, human; conditions: 8 hrs
Protocol: As the activity of the FA pathway is cell cycle dependent, we monitored the effect of HU and EF24 on the cell cycle by FACS analysis.
Hela cells were treated for 8 hrs with 2mM HU and/or 2 mM EF24 as indicated, stained with PI and subjected to DNA content analysis by FA C S. (A) DNA content profiles are shown with M1: 2N DNA (G1 phase), M2: 2N<DNA<4N (S phase), M3: 4N DNA (G2/M phases). (B) Percentage of cells in each phase for each treatment. A representative experiment (from 2 repeats) is shown.
As the activity of the FA pathway is cell-cycle dependent, we tested wheth e r the effect of EF24 on HU-induced FANCD2-L correlated with differences in cell cycle p r ofile.
G2/M cells, consistent with the fact that HU efficiently blocks replication. On the other hand, cells treated with EF24 accumulated […]
Materials and Methods. For FACS analysis, cells were trypsinized, fixed in 70% EtOH and stained for 16 hrs at 4 °C in p r opidium iodide (PI) solution (40 µg/ml PI, 0.2 mg/ml RNAse A, 0.1% triton in PBS). For each point, 10000 gated cells were counted using a FACSCalibur flow cytometer (BD Biosciences). […]

[2] = system: hFANCD2 foci in HeLa cells; assay: Hydroxyurea-induced hFANCD2 foci in HeLa cells (immunofluorescence); assay type: cell-based; conditions: Homo sapiens, cells with more than 5 foci, read-out: inhibition of hFANCD2 foci formation IC50
Protocol: as §2
To confirm inhibition of the FA pathway using another readout, we monitored the effect of EF24 on HU-induced hFANCD2 foci in HeLa cells (Fig. 4B). IC50 values for inhibition of foci formation were in the same range as IC50 values for hFANCD2-Ub inhibition, an expected result since hFANCD2-Ub but not the unmodified hFANCD2 is competent to form foci.
as §3

309ATM KO cells = assay: Survival assay (MTS), ATM KO mouse kidney cells; assay type: cell-based
Excerpt: To test this possibility, we compared the effects of curcumin and EF24 in an ATM KO mouse kidney cell line (309ATM KO) and its isogenic, wild type counterpart (334ATM WT). As expected from ATM deficiency, 309ATM KO cells were more sensitive to ionizing irradiation than 334ATM WT (Additional File 1 - Fig. S3). We next treated these cell lines with various concentrations of EF24 and measured their survival after 72 hrs.
Figure 6 EF24 but not curcumin or DRB is more toxic to ATM-deficient mouse kidney cells than wild-type cells. A) 309ATM KO and 334ATM WT cells were treated with various concentrations of EF24. Cell viability was measured after 3 days by MTS assay. Each point represents the mean of 3 repeats. Error bars represent standard deviation. B) Similar experiment was performed using curcumin.
HSC72OT and HSC72OT+A cells were seeded at 5,000 per well in 96-well plates, and treated 24 hrs later with various concentrations of compounds or DMSO (1 μl in 100 μl medium). 309ATM KO and 334ATM WT cells were seeded at 7,000 per well and treated immediately. Cell survival was measured after 3 days using the CellTiter 96 AQueous One Solution Cell Proliferation Assay (Promega) following the recommendations from the manufacturer. All experiments were done in triplicate.
as §1

O=C1/C(=C/c2ccccc2F)CNC/C1=C\c1ccccc1F [EF24, 3,5-bis(2-flurobenzylidene)piperidin-4-one]
effect on xMRE11 phosphorylation [1]: inhibits the phosphorylation of xMRE11 | integrity of the FA core complex (FA core complex; 1 mM, co-immunoprecipitation with xFANCG): unchanged | recruitment of the core complex to DNA (FA core complex; Xenopus extracts, data not shown): did not detectably interfere | fold more active than curcumin for hFANCD2-Ub inhibition (hFANCD2-Ub in HeLa cells; HeLa cells, hydroxyurea): 40 fold | IC50 (hFANCD2-Ub in HeLa cells; Homo sapiens, HeLa cells co-treated with hydroxyurea, read-out: hFANCD2-Ub inhibition IC50): 390 nM | cell cycle profile, compound alone (HeLa cells; 2 mM EF24 as printed): accumulated | cell cycle profile, compound in combination with HU compared to untreated cells (HeLa cells; 2mM HU): no significant change in the cell cycle profile | IC50 [2]: 300 nM | sensitivity of 309ATM KO cells compared to 334ATM WT cells (309ATM KO cells; 72 hrs survival, KO vs WT): twofold more sensitive | IC50 (309ATM KO cells; Mus musculus, 309ATM KO cells, 72 hrs, MTS, read-out: cell survival IC50 KO): 2600 nM
